Laboratory results published in paper PMC10652611 (Cell & Bioscience, 2023).
Blank lines part the entries; values can stand above or below the molecule they belong to.

Experiments:
NK2 [1] = molecular target: T1, NK2 (Homo sapiens, UniProt P21452); test: NanoBiT cytosolic Ca^2+ response, NK2; format: cell-based; details: HEK293 cells, NK2, Calmodulin-SmBiT/LgBiT-MYLK2S, luminescence
T1 construct: expressed in transfected cells; host or cells: HEK293
T1 sequence (P21452 1-398): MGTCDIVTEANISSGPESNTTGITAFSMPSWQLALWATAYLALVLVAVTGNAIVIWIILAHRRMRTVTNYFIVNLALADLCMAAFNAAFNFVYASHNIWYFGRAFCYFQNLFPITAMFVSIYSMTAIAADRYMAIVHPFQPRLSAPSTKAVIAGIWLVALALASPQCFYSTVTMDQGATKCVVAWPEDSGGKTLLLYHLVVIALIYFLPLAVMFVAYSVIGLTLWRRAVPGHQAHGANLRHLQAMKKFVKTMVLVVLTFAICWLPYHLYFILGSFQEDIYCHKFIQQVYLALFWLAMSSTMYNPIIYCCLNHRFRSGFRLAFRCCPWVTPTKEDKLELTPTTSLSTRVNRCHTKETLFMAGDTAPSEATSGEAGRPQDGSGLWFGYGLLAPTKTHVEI
Description: NKs have been extensively studied, especially with respect to neuropeptide-stimulated Ca^2+ responses. Recently, we developed a real-time calcium assay based on NanoBiT and the Ca^2+-dependent interaction of calmodulin and its target proteins to analyze NK-mediated cellular responses. First, neuropeptide-stimulated luciferase activation was measured in cells expressing NKs and calcium probes to determine the suitability of our assay method. […] Next, the activation efficiency of receptors by each peptide was investigated on Ca^2+ responses based on NanoBiT assay.
NanoLuc Binary Technology (NanoBiT) was utilized to investigate protein–protein interaction. HEK293 cells were seeded in a 96-well white plate at a density of 2 × 10^4 cells per well. The following day, cells were transfected with 50 ng of each plasmid containing SmBiT- or LgBiT- tagged genes using 0.2 µl Lipofectamine 2000 (Invitrogen, Carlsbad, CA, USA). […] Baseline luminescence was measure for 10 min using a SpectraMax L plate reader (Molecular Devices, San Jose, CA, USA). After stimulation with ligands, the luminescence signal was continuously measured for 1 h.
Cytosolic Ca^2+ changes were detected using a NanoBiT system as described previously. […]

[2] = cited from earlier work
NK1 = molecular target: T2, NK1 (Homo sapiens, UniProt P25103); test: NanoBiT β-arrestin1 recruitment to NK1 (NK1-SmBiT/β-arr1-LgBiT); format: cell-based
T2 construct: expressed in transfected cells; host or cells: HEK293
Description: (§1) Ligand-stimulated β-arrestin recruitment to receptors was also examined using the NanoBiT system. The NanoBiT system was used to create construct combinations of receptors and β-arrestin, which were tagged with either SmBiT or LgBiT at N- or C-terminal. These constructs were then expressed in HEK293 cells.
(§2) NanoLuc Binary Technology (NanoBiT) was utilized to investigate protein–protein interaction. HEK293 cells were seeded in a 96-well white plate at a density of 2 × 10^4 cells per well. The following day, cells were transfected with 50 ng of each plasmid containing SmBiT- or LgBiT- tagged genes using 0.2 µl Lipofectamine 2000 (Invitrogen, Carlsbad, CA, USA). To investigate the effect of one receptor on another receptor in β-arrestin recruitment, 100 ng of un-tagged receptor was co-transfected with 50 ng of each of NanoBiT-tagged plasmid and mixed with 0.4 µl Lipofectamine 2000. At 24 h after transfection, the medium was changed to 100 µl of Opti-MEM and the plate was stabilized at room temperature for 10 min before adding NanoBiT substrate. If an inhibitor was used, it was pre-incubated at 37 ℃ for 20 min and at room temperature for 10 min before substrate addition. Baseline luminescence was measure for 10 min using a SpectraMax L plate reader (Molecular Devices, San Jose, CA, USA). After stimulation with ligands, the luminescence signal was continuously measured for 1 h.

[3] = system: human colorectal cancer cell DLD-1; details: cited from earlier work
Description: Although some studies have reported that NK1 and NK2 are expressed in some cancers, the role of NK2 in cancer remains controversial.

NK2 [4] = test: NanoBiT β-arrestin1 recruitment to NK2 (NK2-LgBiT/β-arr1-SmBiT); format: cell-based; details: for effect of aprepitant on NKA-stimulated β-arrestin1 recruitment: 10 nM NKA
Description: as §1, §2

[5] = molecular target: Neurokinin-1 receptor, C-terminal SmBiT- or LgBiT-tagged (UniProt P25103 1-407); test: cell-based or functional assay
Sequence of Neurokinin-1 receptor, C-terminal SmBiT- or LgBiT-tagged (P25103 whole entry): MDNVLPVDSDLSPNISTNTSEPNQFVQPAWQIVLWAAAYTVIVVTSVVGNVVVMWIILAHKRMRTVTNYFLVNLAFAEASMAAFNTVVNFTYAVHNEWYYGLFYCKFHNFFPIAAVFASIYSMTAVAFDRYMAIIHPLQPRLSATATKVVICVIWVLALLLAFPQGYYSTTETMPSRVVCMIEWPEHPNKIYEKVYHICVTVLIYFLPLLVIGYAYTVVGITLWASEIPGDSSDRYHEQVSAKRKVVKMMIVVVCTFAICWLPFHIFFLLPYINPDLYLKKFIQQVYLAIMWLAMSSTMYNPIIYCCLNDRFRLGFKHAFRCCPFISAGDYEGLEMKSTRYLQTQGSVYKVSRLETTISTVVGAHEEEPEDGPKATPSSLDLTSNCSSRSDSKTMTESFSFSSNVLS

T2 sequence (P25103 whole entry): as above

EC50 (NK2 [1]): 0.24 nM
Molecule: CSCC[C@H](NC(=O)[C@H](CC(C)C)NC(=O)CNC(=O)[C@@H](NC(=O)[C@H](Cc1ccccc1)NC(=O)[C@H](Cc1ccccc1)NC(=O)[C@H](CC(=O)O)NC(=O)[C@H](Cc1c[nH]cn1)NC(=O)[C@H](CCSC)NC(=O)[C@@H](N)CC(=O)O)C(C)C)C(N)=O [NKB, neurokinin B]

effect of aprepitant on SP-stimulated β-arrestin1 recruitment (NK1; NK1-SmBiT/β-arr1-LgBiT, 1 μM aprepitant 30 min, 1 μM SP): completely inhibited
effect of aprepitant on NKA-stimulated β-arrestin1 recruitment (NK1; NK1-SmBiT/β-arr1-LgBiT, aprepitant 30 min, 10 nM NKA): inhibited
Molecule: C[C@@H](O[C@H]1OCCN(Cc2n[nH]c(=O)[nH]2)[C@H]1c1ccc(F)cc1)c1cc(C(F)(F)F)cc(C(F)(F)F)c1 [aprepitant]
antitumor activity [2]: antitumor activities through promoting apoptotic mechanisms
SP-stimulated luciferase activities in the presence of aprepitant and intact NK2 (NK1; NK1-SmBiT/β-arr1-LgBiT + intact NK2, 1 μM aprepitant 30 min, 1 μM SP): slightly increased by SP even in the presence of the inhibitor
NKA-stimulated luciferase activities in the presence of aprepitant and intact NK2 (NK1; NK1-SmBiT/β-arr1-LgBiT + intact NK2, aprepitant 30 min, 10 nM NKA): slightly increased by NKA in the presence of aprepitant
effect on AKT/mTOR and Wnt/β-catenin signaling pathways [3]: suppression of AKT/mTOR and Wnt/β-catenin signaling pathways
effect of aprepitant on SP-stimulated NK2/β-arrestin1 interaction (NK2 [4]; NK2-LgBiT/β-arr1-SmBiT + intact NK1, 10 nM SP, aprepitant): inhibited luciferase activities
effect of aprepitant on NKA-stimulated β-arrestin1 recruitment (NK2 [4]; NK2-LgBiT/β-arr1-SmBiT + intact NK1, aprepitant 30 min): not downregulated
effect of aprepitant on SP-stimulated β-arrestin1 recruitment (NK2 [4]; NK2-LgBiT/β-arr1-SmBiT, 1 μM aprepitant 30 min, 1 μM SP): not affected
effect of aprepitant on NKA-stimulated β-arrestin1 recruitment (NK2 [4]; NK2-LgBiT/β-arr1-SmBiT, aprepitant 30 min): not influenced

EC50 of SP for recruitment of β-arrestin1-SmBiT to NK2-LgBiT (NanoBiT luciferase) with intact NK1 co-expressed [5]: 164 nM
B1: Neurokinin-2 receptor, C-terminal SmBiT- or LgBiT-tagged (receptor, UniProt P21452 1-398, looked up)
chain: MGTCDIVTEANISSGPESNTTGITAFSMPSWQLALWATAYLALVLVAVTGNAIVIWIILAHRRMRTVTNYFIVNLALADLCMAAFNAAFNFVYASHNIWYFGRAFCYFQNLFPITAMFVSIYSMTAIAADRYMAIVHPFQPRLSAPSTKAVIAGIWLVALALASPQCFYSTVTMDQGATKCVVAWPEDSGGKTLLLYHLVVIALIYFLPLAVMFVAYSVIGLTLWRRAVPGHQAHGANLRHLQAMKKFVKTMVLVVLTFAICWLPYHLYFILGSFQEDIYCHKFIQQVYLALFWLAMSSTMYNPIIYCCLNHRFRSGFRLAFRCCPWVTPTKEDKLELTPTTSLSTRVNRCHTKETLFMAGDTAPSEATSGEAGRPQDGSGLWFGYGLLAPTKTHVEI
